Source: patent US20020137929A1, “1 - (3-heterocyclylphenyl) isothiourea, -isourea, -guanidine and -amidine herbicidal agents” (Intellectual Property Department, BASF Aktiengesellschaft, priority 1998, published 2002)

Columns and labels:
CASOB (Sicklepod) = assay: Postemergence herbicidal evaluation; format: in vivo, Cassia obtusifolia; conditions: postemergence
Summary of the method: (§1)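 Compound is applied as a foliar spray to seedlings about two weeks old, formulated in equal parts acetone and water with 0.5% TWEEN 20 and delivered at 40 psi to give about 0.0156–0.500 kg per hectare. Injury is rated visually 0–9 after four to five weeks.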

GALAP (Galium) = assay: Postemergence herbicidal evaluation; format: in vivo, Galium aparine; conditions: postemergence
Summary of the method: as §1

ZEAMX (Corn, Field) [1] = assay: Postemergence herbicidal evaluation; format: in vivo, Zea mays; conditions: postemergence
Summary of the method: as §1

AMBEL (Ragweed, Common) = assay: Preemergence herbicidal evaluation; format: in vivo, Ambrosia artemisifolia; conditions: rated 4-5 weeks after treatment
Summary of the method: (§2)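 Herbicidal effect scored visually, 0-9, at 4 to 5 weeks against a control; compound applied preemergence by aqueous acetone spray to seeded soil at about 0.0156 to 0.500 kg/ha.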

[2] = system: CHEAL (Lambsquarters, Common); assay: Preemergence herbicidal evaluation; format: in vivo, Chenopodium album; conditions: rated 4-5 weeks after treatment
Summary of the method: as §2

ORYSAT (Rice, Tebonnet) = assay: Preemergence herbicidal evaluation; format: in vivo, Oryza sativa, (L.) Tebonnet; conditions: rated 4-5 weeks after treatment
Summary of the method: as §2

[3] = system: TRZAWR (Wheat, Winter, cv Riband); assay: Preemergence herbicidal evaluation; format: in vivo, Triticum aestivum; conditions: rated 4-5 weeks after treatment
Summary of the method: as §2

ZEAMX (Corn, Field) [4] = assay: Preemergence herbicidal evaluation; format: in vivo, Zea mays; conditions: rated 4-5 weeks after treatment
Summary of the method: as §2

[5] = system: ECHORC (Watergrass (Calif.)); assay: Preemergence weed control under flooded paddy conditions; format: in vivo, Echinochloa oryzoides; conditions: rated 3-4 weeks after treatment
Summary of the method: (§3)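 Visual injury scored 0-9 against control three to four weeks post-treatment, greenhouse-grown. Application: acetone/water (50/50) solutions dosed directly into flood water (1.5-3 cm over silt loam, planted top 0.5 cm), roughly 0.0313 to 0.500 kg/ha active ingredient.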

CYPIR (Rice Flatsedge) = assay: as above; format: in vivo, Cyperus iria; conditions: rated 3-4 weeks after treatment
Summary of the method: as §3

CYPSE (Flatsedge) [6] = assay: as above; format: in vivo, Cyperus serotinus; conditions: rated 3-4 weeks after treatment
Summary of the method: as §3

[7] = system: ECHORC (Watergrass (Calif.)); assay: Postemergence weed control under flooded paddy conditions; format: in vivo, Echinochloa oryzoides; conditions: postemergence weeds, 3-4 weeks after treatment
Summary of the method: (§4)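 Injury ratings (0–9 scale covering stand, vigor, malformation, size, chlorosis and overall appearance versus control) were made three to four weeks after treatment. Test material, about 0.0313 to 0.500 kg/ha a.i. in 50/50 v/v aqueous/acetone, was added to flood water 1.5 to 3 cm deep over 3 to 5 cm weeds and 1.5 to 2.5 leaf rice.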

CYPSE (Flatsedge) [8] = assay: as above; format: in vivo, Cyperus serotinus; conditions: postemergence weeds, 3-4 weeks after treatment
Summary of the method: as §4

C=CCN1C(=O)CSC1=Nc1cc(N2C(=O)C3=C(CCCC3)C2=O)c(F)cc1Cl [Compound 2, N-{5-[(3-allyl-4-oxo-2-thiazolidinylidene)amino]-4-chloro-2-fluorophenyl}-1-cyclohexene-1,2-dicarboximide]
7.0: CASOB herbicidal rating (CASOB (Sicklepod); rate 0.5000 kg/ha) | CHEAL preemergence herbicidal rating ([2]; rate 0.0313 kg/ha) | Herbicidal rating ECHORC ([5]; 0.1250 kg/ha)
3.0: ZEAMX herbicidal rating (ZEAMX (Corn, Field) [1]; rate 0.0157 kg/ha) | ZEAMX herbicidal rating (ZEAMX (Corn, Field) [1]; rate 0.0313 kg/ha) | ZEAMX herbicidal rating (ZEAMX (Corn, Field) [1]; rate 0.0625 kg/ha) | ORYSAT preemergence herbicidal rating (ORYSAT (Rice, Tebonnet); rate 0.5000 kg/ha)
2.0: CASOB herbicidal rating (CASOB (Sicklepod); rate 0.0625 kg/ha) | CASOB herbicidal rating (CASOB (Sicklepod); rate 0.1250 kg/ha) | ORYSAT preemergence herbicidal rating (ORYSAT (Rice, Tebonnet); rate 0.0313 kg/ha) | ORYSAT preemergence herbicidal rating (ORYSAT (Rice, Tebonnet); rate 0.0625 kg/ha) | ORYSAT preemergence herbicidal rating (ORYSAT (Rice, Tebonnet); rate 0.1250 kg/ha) | ORYSAT preemergence herbicidal rating (ORYSAT (Rice, Tebonnet); rate 0.2500 kg/ha) | Herbicidal rating ECHORC ([5]; 0.0313 kg/ha) | Herbicidal rating ECHORC ([5]; 0.0625 kg/ha)
1.0: Herbicidal rating CYPIR (CYPIR (Rice Flatsedge); 0.5000 kg/ha) | Herbicidal rating ECHORC ([7]; rate 0.0313 kg/ha) | Herbicidal rating ECHORC ([7]; rate 0.0625 kg/ha)
9.0: CHEAL preemergence herbicidal rating ([2]; rate 0.2500 kg/ha) | CHEAL preemergence herbicidal rating ([2]; rate 0.5000 kg/ha) | Herbicidal rating ECHORC ([5]; 0.5000 kg/ha)
4.5: Herbicidal rating ECHORC ([7]; rate 0.5000 kg/ha)
4.0: CASOB herbicidal rating (CASOB (Sicklepod); rate 0.0157 kg/ha) | CASOB herbicidal rating (CASOB (Sicklepod); rate 0.0313 kg/ha) | CASOB herbicidal rating (CASOB (Sicklepod); rate 0.2500 kg/ha) | GALAP herbicidal rating (GALAP (Galium); rate 0.0157 kg/ha) | GALAP herbicidal rating (GALAP (Galium); rate 0.0625 kg/ha) | GALAP herbicidal rating (GALAP (Galium); rate 0.1250 kg/ha) | GALAP herbicidal rating (GALAP (Galium); rate 0.2500 kg/ha) | GALAP herbicidal rating (GALAP (Galium); rate 0.5000 kg/ha) | ZEAMX herbicidal rating (ZEAMX (Corn, Field) [1]; rate 0.5000 kg/ha) | Herbicidal rating ECHORC ([7]; rate 0.2500 kg/ha)
3.5: ZEAMX herbicidal rating (ZEAMX (Corn, Field) [1]; rate 0.1250 kg/ha) | ZEAMX herbicidal rating (ZEAMX (Corn, Field) [1]; rate 0.2500 kg/ha) | Herbicidal rating ECHORC ([7]; rate 0.1250 kg/ha)
8.0: GALAP herbicidal rating (GALAP (Galium); rate 0.0313 kg/ha) | Herbicidal rating ECHORC ([5]; 0.2500 kg/ha)
0.0: AMBEL preemergence herbicidal rating (AMBEL (Ragweed, Common); rate 0.0313 kg/ha) | AMBEL preemergence herbicidal rating (AMBEL (Ragweed, Common); rate 0.0625 kg/ha) | AMBEL preemergence herbicidal rating (AMBEL (Ragweed, Common); rate 0.1250 kg/ha) | AMBEL preemergence herbicidal rating (AMBEL (Ragweed, Common); rate 0.2500 kg/ha) | AMBEL preemergence herbicidal rating (AMBEL (Ragweed, Common); rate 0.5000 kg/ha) | TRZAWR preemergence herbicidal rating ([3]; rate 0.0313 kg/ha) | TRZAWR preemergence herbicidal rating ([3]; rate 0.0625 kg/ha) | TRZAWR preemergence herbicidal rating ([3]; rate 0.1250 kg/ha) | TRZAWR preemergence herbicidal rating ([3]; rate 0.2500 kg/ha) | TRZAWR preemergence herbicidal rating ([3]; rate 0.5000 kg/ha) | ZEAMX preemergence herbicidal rating (ZEAMX (Corn, Field) [4]; rate 0.0313 kg/ha) | ZEAMX preemergence herbicidal rating (ZEAMX (Corn, Field) [4]; rate 0.0625 kg/ha) | ZEAMX preemergence herbicidal rating (ZEAMX (Corn, Field) [4]; rate 0.1250 kg/ha) | ZEAMX preemergence herbicidal rating (ZEAMX (Corn, Field) [4]; rate 0.2500 kg/ha) | ZEAMX preemergence herbicidal rating (ZEAMX (Corn, Field) [4]; rate 0.5000 kg/ha) | Herbicidal rating CYPIR (CYPIR (Rice Flatsedge); 0.0313 kg/ha) | Herbicidal rating CYPIR (CYPIR (Rice Flatsedge); 0.0625 kg/ha) | Herbicidal rating CYPIR (CYPIR (Rice Flatsedge); 0.1250 kg/ha) | Herbicidal rating CYPIR (CYPIR (Rice Flatsedge); 0.2500 kg/ha) | Herbicidal rating CYPSE (CYPSE (Flatsedge) [6]; 0.0313 kg/ha) | Herbicidal rating CYPSE (CYPSE (Flatsedge) [6]; 0.0625 kg/ha) | Herbicidal rating CYPSE (CYPSE (Flatsedge) [6]; 0.1250 kg/ha) | Herbicidal rating CYPSE (CYPSE (Flatsedge) [6]; 0.2500 kg/ha) | Herbicidal rating CYPSE (CYPSE (Flatsedge) [6]; 0.5000 kg/ha) | Herbicidal rating CYPSE (CYPSE (Flatsedge) [8]; rate 0.0313 kg/ha) | Herbicidal rating CYPSE (CYPSE (Flatsedge) [8]; rate 0.0625 kg/ha) | Herbicidal rating CYPSE (CYPSE (Flatsedge) [8]; rate 0.1250 kg/ha) | Herbicidal rating CYPSE (CYPSE (Flatsedge) [8]; rate 0.2500 kg/ha) | Herbicidal rating CYPSE (CYPSE (Flatsedge) [8]; rate 0.5000 kg/ha)

CCC1SC(=Nc2cc(N3C(=O)C4=C(CCCC4)C3=O)c(F)cc2Cl)N(C)C1=O (stereo not shown) [Compound 6, N-{4-chloro-5-[(5-ethyl-3-methyl-4-oxo-2-thiazolidinylidene)amino]-2-fluorophenyl}-1-cyclohexene-1,2-dicarboximide]
2.0: CASOB herbicidal rating (CASOB (Sicklepod); rate 0.2500 kg/ha) | GALAP herbicidal rating (GALAP (Galium); rate 0.1250 kg/ha) | CHEAL preemergence herbicidal rating ([2]; rate 0.1250 kg/ha) | Herbicidal rating ECHORC ([5]; 0.1250 kg/ha) | Herbicidal rating CYPIR (CYPIR (Rice Flatsedge); 0.0625 kg/ha)
7.0: GALAP herbicidal rating (GALAP (Galium); rate 0.2500 kg/ha) | Herbicidal rating ECHORC ([5]; 0.2500 kg/ha) | Herbicidal rating ECHORC ([5]; 0.5000 kg/ha) | Herbicidal rating CYPIR (CYPIR (Rice Flatsedge); 0.5000 kg/ha)
1.0: Herbicidal rating ECHORC ([7]; rate 0.1250 kg/ha)
6.0: CASOB herbicidal rating (CASOB (Sicklepod); rate 0.5000 kg/ha) | Herbicidal rating CYPIR (CYPIR (Rice Flatsedge); 0.2500 kg/ha)
3.5: ZEAMX herbicidal rating (ZEAMX (Corn, Field) [1]; rate 0.0313 kg/ha) | ZEAMX herbicidal rating (ZEAMX (Corn, Field) [1]; rate 0.0625 kg/ha) | ZEAMX herbicidal rating (ZEAMX (Corn, Field) [1]; rate 0.1250 kg/ha) | ZEAMX herbicidal rating (ZEAMX (Corn, Field) [1]; rate 0.2500 kg/ha) | Herbicidal rating ECHORC ([7]; rate 0.2500 kg/ha) | Herbicidal rating ECHORC ([7]; rate 0.5000 kg/ha)
4.0: ZEAMX herbicidal rating (ZEAMX (Corn, Field) [1]; rate 0.5000 kg/ha) | CHEAL preemergence herbicidal rating ([2]; rate 0.2500 kg/ha) | Herbicidal rating CYPIR (CYPIR (Rice Flatsedge); 0.1250 kg/ha)
9.0: GALAP herbicidal rating (GALAP (Galium); rate 0.5000 kg/ha) | CHEAL preemergence herbicidal rating ([2]; rate 0.5000 kg/ha)
3.0: ZEAMX herbicidal rating (ZEAMX (Corn, Field) [1]; rate 0.0157 kg/ha)
0.0: CASOB herbicidal rating (CASOB (Sicklepod); rate 0.0157 kg/ha) | CASOB herbicidal rating (CASOB (Sicklepod); rate 0.0313 kg/ha) | CASOB herbicidal rating (CASOB (Sicklepod); rate 0.0625 kg/ha) | CASOB herbicidal rating (CASOB (Sicklepod); rate 0.1250 kg/ha) | GALAP herbicidal rating (GALAP (Galium); rate 0.0157 kg/ha) | GALAP herbicidal rating (GALAP (Galium); rate 0.0313 kg/ha) | GALAP herbicidal rating (GALAP (Galium); rate 0.0625 kg/ha) | AMBEL preemergence herbicidal rating (AMBEL (Ragweed, Common); rate 0.1250 kg/ha) | AMBEL preemergence herbicidal rating (AMBEL (Ragweed, Common); rate 0.2500 kg/ha) | AMBEL preemergence herbicidal rating (AMBEL (Ragweed, Common); rate 0.5000 kg/ha) | ORYSAT preemergence herbicidal rating (ORYSAT (Rice, Tebonnet); rate 0.1250 kg/ha) | ORYSAT preemergence herbicidal rating (ORYSAT (Rice, Tebonnet); rate 0.2500 kg/ha) | ORYSAT preemergence herbicidal rating (ORYSAT (Rice, Tebonnet); rate 0.5000 kg/ha) | TRZAWR preemergence herbicidal rating ([3]; rate 0.1250 kg/ha) | TRZAWR preemergence herbicidal rating ([3]; rate 0.2500 kg/ha) | TRZAWR preemergence herbicidal rating ([3]; rate 0.5000 kg/ha) | ZEAMX preemergence herbicidal rating (ZEAMX (Corn, Field) [4]; rate 0.1250 kg/ha) | ZEAMX preemergence herbicidal rating (ZEAMX (Corn, Field) [4]; rate 0.2500 kg/ha) | ZEAMX preemergence herbicidal rating (ZEAMX (Corn, Field) [4]; rate 0.5000 kg/ha) | Herbicidal rating ECHORC ([5]; 0.0313 kg/ha) | Herbicidal rating ECHORC ([5]; 0.0625 kg/ha) | Herbicidal rating CYPIR (CYPIR (Rice Flatsedge); 0.0313 kg/ha) | Herbicidal rating CYPSE (CYPSE (Flatsedge) [6]; 0.0313 kg/ha) | Herbicidal rating CYPSE (CYPSE (Flatsedge) [6]; 0.0625 kg/ha) | Herbicidal rating CYPSE (CYPSE (Flatsedge) [6]; 0.1250 kg/ha) | Herbicidal rating CYPSE (CYPSE (Flatsedge) [6]; 0.2500 kg/ha) | Herbicidal rating CYPSE (CYPSE (Flatsedge) [6]; 0.5000 kg/ha) | Herbicidal rating ECHORC ([7]; rate 0.0313 kg/ha) | Herbicidal rating ECHORC ([7]; rate 0.0625 kg/ha) | Herbicidal rating CYPSE (CYPSE (Flatsedge) [8]; rate 0.0313 kg/ha) | Herbicidal rating CYPSE (CYPSE (Flatsedge) [8]; rate 0.0625 kg/ha) | Herbicidal rating CYPSE (CYPSE (Flatsedge) [8]; rate 0.1250 kg/ha) | Herbicidal rating CYPSE (CYPSE (Flatsedge) [8]; rate 0.2500 kg/ha) | Herbicidal rating CYPSE (CYPSE (Flatsedge) [8]; rate 0.5000 kg/ha)
